According to publication PMC11078216, “Discovery of potent and selective activity-based probes (ABPs) for the deubiquitinating enzyme USP30” (RSC Chemical Biology, 2024):

What was measured:
Assay in all cases: ABPP chemical proteomics (LC-MS/MS) in HEK293T cells
Type in all cases: cell-based
ALDH2 = molecular target: T1, ALDH2 (Homo sapiens, UniProt P05091)
T1 construct: endogenous in cells; host or cells: HEK293T
T1 sequence (P05091 18-517): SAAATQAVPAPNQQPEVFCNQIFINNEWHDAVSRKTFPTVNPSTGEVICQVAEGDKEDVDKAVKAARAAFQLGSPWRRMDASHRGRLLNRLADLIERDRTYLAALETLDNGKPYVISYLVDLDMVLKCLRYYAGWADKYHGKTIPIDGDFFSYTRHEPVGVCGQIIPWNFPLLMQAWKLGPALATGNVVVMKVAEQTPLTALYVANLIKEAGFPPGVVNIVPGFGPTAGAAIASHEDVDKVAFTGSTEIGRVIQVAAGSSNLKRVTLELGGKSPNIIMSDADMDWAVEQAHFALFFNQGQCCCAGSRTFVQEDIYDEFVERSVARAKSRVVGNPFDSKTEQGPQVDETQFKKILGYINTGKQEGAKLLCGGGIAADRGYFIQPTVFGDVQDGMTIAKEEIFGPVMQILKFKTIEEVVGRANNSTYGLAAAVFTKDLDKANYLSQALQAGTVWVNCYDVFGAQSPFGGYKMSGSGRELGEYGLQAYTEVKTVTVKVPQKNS
Description: (§1) To explore the selectivity of IMP-2587 and IMP-2586 across the whole proteome, we performed quantitative activity-based protein profiling (ABPP) in HEK293T cells following treatment with IMP-2587 or IMP-2586 (Fig. 3a). After ABP incubation, cells were lysed, and probe-labelled proteins were ligated to biotinylated capture reagents.[27] […] USP30 was outcompeted by corresponding parent inhibitors for each ABP (Fig. 5b and d and Tables S3 and S5, ESI ^†), confirming the high potency and rapid engagement of IMP-2587 and IMP-2586 in cells. […] DESI1 and DESI2 are small ubiquitin-related modifier (SUMO) proteases,[3,29–32] and IMP-2587 and IMP-2586 may offer a starting point for future development of DESI ABPs. […]
(§2) d) Live cell probe incubation, lysate click chemistry and precipitation 6-well HEK293T cells were incubated with media containing compounds ABP 2 and ABP 4 at indicated concentrations for 1 h at 37 °C. The cells were washed with PBS and lysed with lysis buffer (50 μL (1% (v/v) Triton X-100, 0.1% (w/v) sodium dodecyl sulfate (SDS), EDTA-free complete protease inhibitor cocktail (1×, Roche) in PBS on ice for 10 min. The lysates were scraped and transferred to corresponding Lo-Bind Eppendorfs. Each lysate was sonicated for 1 minute, and the samples centrifuges at 5,000 x g at 4 °C for 5 minutes to pellet insoluble cellular debris. The supernatant was collected, and protein concentration was determined using the DC Protein Assay (Bio-Rad) as per manufacturer’s instructions, and normalised to lowest concentrated sample (e.g. 1 mg/mL, using lysis buffer). The following “click mixture” was prepared separately, preparing 6 μL for every 100 μL of […]
(§3) Capture reagent (AzRB/AzT for ABP 2, YnT/YnB for ABP 4 10 mM in DMSO, 1 vol; final concentration […]
(§4) CuSO4 (50 mM in water, 2 vol; final concentration in reaction 1 mM)
(§5) TCEP (50 mM in water, 2 vol; final concentration in reaction 1 mM)
(§6) TBTA (10 mM in DMSO, 1 vol; final concentration in reaction 100 µM)
(§7) The click mixture was vortexed and incubated at room temperature for 2 min before 6 μL of the mixture was added to every 100 μL of lysate. The reaction mixtures were shaken at room temperature for 1 h before being quenched with EDTA (500 mM in H2O) to a final concentration of 10 mM.
(§8) Proteins were precipitated by adding H2O (1 vol), MeOH (2 vol) and CHCl3 (0.5 vol), vortexing briefly then centrifuging at 17,000 × g for 5 min. The top H2O/MeOH layer was discarded and the middle layer of protein pellet and lower CHCl3 layer retained. The suspension was washed with MeOH (300 μL), and sonicated to break up the pellet. The proteins were pelleted by centrifugation at 10,000–17000 × g for 5–10 min or until a compact pellet was formed. The protein pellet was washed once more with MeOH (1 mL). The pellet was resuspended by sonicating and completely dissolving in 1% (w/v) SDS in PBS (to 5 mg/mL protein) before being made up to 1 mg/mL protein with PBS. […]
(§9) f) Neutravidin biotin enrichment (Affinity pull-down)
(§10) Click chemistry and precipitation steps were carried out as described in section 3.2.d, on at least 400ug of protein per sample. The pellet was resuspended by sonicating and completely dissolving in 1% (w/v) SDS in HEPES 50 mM pH 8.0, before being made up to 1 mg/mL protein with HEPES 50 mM pH 8.0 to […]
(§11) achieve a final concentration of 0.2% SDS. 20uL of each samples was collected as TL (Total lysate) samples. Pull down of biotinylated proteins was achieved by incubating samples with pre-equilibrated (3x 1 mL washes with 0.2% (w/v) SDS in HEPES 50 mM pH 8 buffer) Pierce™ NeutrAvidin™ Agarose beads for 3 hours at room temperature. NeutrAvidin™ Agarose beads were used in ratio of 1 μL bead resin per 10ug of protein sample. The beads were subsequently washed by moderate shaking for 10 seconds then briefly pelleting by table-top centrifuge then vacuum aspirating the supernatant with fine-end pipette tips (to not disturb the agarose) after collecting 20 µL supernatant as SN (supernatant […]
(§12) ) samples. […]

C21orf33 = molecular target: T2, C21orf33 (Homo sapiens, UniProt P0DPI2)
T2 construct: endogenous in cells; host or cells: HEK293T
T2 sequence (P0DPI2 42-268): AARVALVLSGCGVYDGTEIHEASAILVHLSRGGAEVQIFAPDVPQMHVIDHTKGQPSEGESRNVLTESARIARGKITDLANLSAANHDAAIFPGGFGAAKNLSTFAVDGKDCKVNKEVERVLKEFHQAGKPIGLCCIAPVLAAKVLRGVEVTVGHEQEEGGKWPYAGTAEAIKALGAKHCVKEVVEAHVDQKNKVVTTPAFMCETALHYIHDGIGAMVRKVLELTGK
Description: as §1, §2, §3, §4, §5, §6, §7, §8, §9, §10, §11, §12

DESI1 = molecular target: T3, DESI1 (Homo sapiens, UniProt Q6ICB0)
T3 construct: endogenous in cells; host or cells: HEK293T
T3 sequence (Q6ICB0 1-168): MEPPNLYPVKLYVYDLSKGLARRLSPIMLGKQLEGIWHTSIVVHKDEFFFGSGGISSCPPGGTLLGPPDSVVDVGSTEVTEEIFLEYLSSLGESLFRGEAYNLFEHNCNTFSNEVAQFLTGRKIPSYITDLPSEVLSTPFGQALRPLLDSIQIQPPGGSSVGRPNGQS
Description: as §1, §2, §3, §4, §5, §6, §7, §8, §9, §10, §11, §12

ISOC2 = molecular target: T4, ISOC2 (Homo sapiens, UniProt Q96AB3)
T4 construct: endogenous in cells; host or cells: HEK293T
T4 sequence (Q96AB3 1-205): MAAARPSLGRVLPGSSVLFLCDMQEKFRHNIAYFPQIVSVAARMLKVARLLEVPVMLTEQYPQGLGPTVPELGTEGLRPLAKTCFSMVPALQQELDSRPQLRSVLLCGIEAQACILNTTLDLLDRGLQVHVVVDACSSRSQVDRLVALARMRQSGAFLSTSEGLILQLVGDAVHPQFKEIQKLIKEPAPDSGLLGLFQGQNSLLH
Description: as §1, §2, §3, §4, §5, §6, §7, §8, §9, §10, §11, §12

[1] = compound 3 out-competition with IMP-2586 labelling, HEK293T (Table S5, Fig.5d)
[2] = IMP-2587 labelling vs DMSO, 30 nM, 10 min, HEK293T (Table S2, Fig.5a)
[3] = IMP-2586 labelling vs DMSO, 30 nM, 10 min, HEK293T (Table S4, Fig.5c)
[4] = compound 1 out-competition with IMP-2587 labelling, HEK293T (Table S3, Fig.5b)

N#CN1CC[C@@H](NC(=O)c2cc(-c3ccccc3Oc3ccccc3)n[nH]2)C1 [compound 3, reference compound] was tested, and the “Difference (log2 fold change of enrichment)” value (ALDH2; [1]) was -1.64, the “Difference (log2 fold change of enrichment)” value (C21orf33; [1]) was -3.65 and the “Difference (log2 fold change of enrichment)” value (DESI1; [1]) was -2.81. For the same molecule, the “Difference (log2 fold change of enrichment)” value (ISOC2; [1]) was -3.08.

With C#Cc1cccc(-c2cc(NC(=O)CC3CCN(C#N)C3)on2)c1 (stereo not drawn) [IMP-2587] the “Difference (log2 fold change of enrichment)” value (ALDH2; [2]) was 3.49, the “Difference (log2 fold change of enrichment)” value (C21orf33; [2]) was 0.92 and the “Difference (log2 fold change of enrichment)” value (DESI1; [2]) was 3.61. For the same molecule, the “Difference (log2 fold change of enrichment)” value (ISOC2; [2]) was 3.87.

In the case of N#CN1CC[C@@H](NC(=O)c2cc(-c3ccccc3Oc3ccc(N=[N+]=[N-])cc3)n[nH]2)C1 [IMP-2586], the “Difference (log2 fold change of enrichment)” value (ALDH2; [3]) is reported as 2.13, the “Difference (log2 fold change of enrichment)” value (C21orf33; [3]) is reported as 3.93 and the “Difference (log2 fold change of enrichment)” value (DESI1; [3]) is reported as 3.04. For the same molecule, the “Difference (log2 fold change of enrichment)” value (ISOC2; [3]) was 3.62.

With N#CN1CC[C@H](CC(=O)Nc2cc(-c3cccc(Cl)c3)no2)C1 [compound 1, reference compound] the “Difference (log2 fold change of enrichment)” value (ALDH2; [4]) was -3.07, the “Difference (log2 fold change of enrichment)” value (DESI1; [4]) was -3.45 and the “Difference (log2 fold change of enrichment)” value (ISOC2; [4]) was -3.53.
